# In patent publication EP0594540B1, “Antiretroviral acyl compounds” (Novartis AG, priority 1992, dated 1994):
# Assay: Blood concentration in mice after oral administration (reversed-phase HPLC)
# Assay type: in vivo, Mäusen
# Settings: oral gavage
# Procedure: Die zu untersuchenden Verbindungen der Formel I oder als Kontrolle die Vergleichsverbindung der Formel II werden in Dimethylsulfoxid (DMSO) in einer Konzentration von 240 mg/ml gelöst. Die resultierenden Lösungen werden mit 20% (w/v) Hydroxypropyl-β-cyclodextrin (HPβCD) verdünnt, um eine Konzentration der Testsubstanz von 12 mg/ml zu erhalten. Diese Lösung wird Mäusen durch künstliche Sonderernährung in einer Dosis von 120 mg/kg verabreicht. 30, 60, 90 und 120 min nach der Verabreichung werden die Tiere getötet und Blut entnommen. Pro Zeitpunkt werden drei bis vier Tiere untersucht. Das Blut wird heparinisiert und für die Analyse durch eine der folgenden beiden Methoden vorbereitet: Nach der ersten Methode wird Vollblut deproteinisiert durch Mischen eines Volumenteils Blut mit einem Volumenteil Acetonitril; nach Zentrifugation wird der Überstand durch Reversed-Phase-HPLC untersucht. Nach der zweiten Methode wird ein interner Standard zum heparinisierten Blut in einer Endkonzentration von 4 µM zugegeben. Das Blut wird zentrifugiert. 0,25 ml Plasma werden abgenommen und mit einem gleichen Volumen Acetonitril deproteinisiert. Nach Zentrifugation wird der Überstand unter Vakuum eingetrocknet und der Rückstand in 20 µl 3M NaCl-Lösung und 100 µl 0,05M Phthalat-Puffer mit einem pH von 3,0 suspendiert. Die Suspension wird erst mit 1 ml, dann mit 0,2 ml Diisopropylether extrahiert. […]
compound,measurement,setting,value
"CC(=O)O[C@H](CN1C[C@H]2CCCC[C@H]2C[C@H]1C(=O)NC(C)(C)C)[C@H](Cc1ccccc1)NC(=O)[C@H](CC(N)=O)NC(=O)c1ccc2ccccc2n1 [N-tert.-Butyl-decahydro-2-[2(R)-acetyloxy-4-phenyl-3(S)-[[N-(2-chinolylcarbonyl)-L-asparaginyl]amino]butyl]-(4aS,8aS)-isochinolin-3(S)-carboxamid]",Konzentration der aktiven Komponente der Formel II im Blut,"120 mg/kg, 30, 60, 90 and 120 min after dosing, compared with administration of the compound of formula II in unesterified form",mehr als dreimal so hoch
same,Absorption der Verbindung der Formel I,"120 mg/kg, compared with absorption of the compound of formula II",mehr als viermal so hoch
